Legend:
ALOMY = test: Post-emergence herbicidal action against ALOMY; assay type: in vivo, Alopecurus myosuroides; conditions: application rate 80 g/ha, rated visually after about 3 weeks
Procedure, shortened: (§1)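 Foliar application at 600 l/ha water, 0.5% additive, WP or EC formulation; plants at one-leaf stage in greenhouse sandy loam pots. Scored visually ~3 weeks post-treatment, 0–100% relative to untreated plants.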

AVEFA = test: Post-emergence herbicidal action against AVEFA; assay type: in vivo, Avena fatua; conditions: application rate 80 g/ha, rated visually after about 3 weeks
Procedure, shortened: as §1

ECHCG = test: Post-emergence herbicidal action against ECHCG; assay type: in vivo, Echinochloa crus-galli; conditions: application rate 80 g/ha, rated visually after about 3 weeks
Procedure, shortened: as §1

LOLRI = test: Post-emergence herbicidal action against LOLRI; assay type: in vivo, Lolium rigidum; conditions: application rate 80 g/ha, rated visually after about 3 weeks
Procedure, shortened: as §1

SETVI = test: Post-emergence herbicidal action against SETVI; assay type: in vivo, Setaria viridis; conditions: application rate 80 g/ha, rated visually after about 3 weeks
Procedure, shortened: as §1

ABUTH = test: Post-emergence herbicidal action against ABUTH; assay type: in vivo, Abutilon theophrasti; conditions: application rate 80 g/ha, rated visually about 3 weeks after treatment
Procedure, shortened: as §1

AMARE = test: Post-emergence herbicidal action against AMARE; assay type: in vivo, Amaranthus retroflexus; conditions: application rate 80 g/ha, rated visually about 3 weeks after treatment
Procedure, shortened: as §1

MATIN = test: Post-emergence herbicidal action against MATIN; assay type: in vivo, Matricaria inodora; conditions: application rate 80 g/ha, rated visually about 3 weeks after treatment
Procedure, shortened: as §1

PHBPU = test: Post-emergence herbicidal action against PHBPU; assay type: in vivo, Pharbitis purpurea; conditions: application rate 80 g/ha, rated visually about 3 weeks after treatment
Procedure, shortened: as §1

POLCO = test: Post-emergence herbicidal action against POLCO; assay type: in vivo, Polygonum convolvulus; conditions: application rate 80 g/ha, rated visually about 3 weeks after treatment
Procedure, shortened: as §1

STEME = test: Post-emergence herbicidal action against STEME; assay type: in vivo, Stellaria media; conditions: application rate 80 g/ha, rated visually about 3 weeks after treatment
Procedure, shortened: as §1

VIOTR = test: Post-emergence herbicidal action against VIOTR; assay type: in vivo, Viola tricolor; conditions: application rate 80 g/ha, rated visually about 3 weeks after treatment
Procedure, shortened: as §1

VERPE = test: Post-emergence herbicidal action against VERPE; assay type: in vivo, Veronica persica; conditions: application rate 80 g/ha
Procedure, shortened: as §1

HORMU = test: Post-emergence herbicidal action against HORMU; assay type: in vivo, Hordeum murinum; conditions: application rate 80 g/ha
Procedure, shortened: as §1

| Structure (SMILES) | Herbicidal action against [%] ALOMY (ALOMY) | Herbicidal action against [%] AVEFA (AVEFA) | Herbicidal action against [%] ECHCG (ECHCG) | Herbicidal action against [%] LOLRI (LOLRI) | Herbicidal action against [%] SETVI (SETVI) | Herbicidal action against [%] ABUTH (ABUTH) | Herbicidal action against [%] AMARE (AMARE) | Herbicidal action against [%] MATIN (MATIN) | Herbicidal action against [%] PHBPU (PHBPU) | Herbicidal action against [%] POLCO (POLCO) | Herbicidal action against [%] STEME (STEME) | Herbicidal action against [%] VIOTR (VIOTR) | Herbicidal action against [%] VERPE (VERPE) | Herbicidal action against [%] HORMU (HORMU) |
| --- | --- | --- | --- | --- | --- | --- | --- | --- | --- | --- | --- | --- | --- | --- |
| O=C(OCc1ccccc1)C1C=CC(NC(=O)C2(C(F)(F)F)CC(c3cc(F)cc(F)c3)=NO2)C1 (mixture of isomers) [Example I-065] | 90% | 90% | 90% | 90% | 90% | 80% | 80% | 80% | 80% | 90% | 90% | 90% | 80% | 90% |
| O=C(OCC(F)(F)F)C1C=CC(NC(=O)C2(C(F)(F)F)CC(c3cc(F)cc(F)c3)=NO2)C1 (mixture of isomers) [Example I-068] | 90% | 100% | 90% | 90% | 90% | 90% | 80% | 90% | 80% | 90% | 90% | 90% | 80% | 90% |
| COC(=O)[C@H]1C=C[C@H](NC(=O)[C@@]2(C(F)(F)F)CC(c3cc(F)cc(F)c3)=NO2)C1 [Example I-062] | 100% | 100% | 90% | 90% | 80% | 80% | 80% | 80% | 80% | 80% | 80% | 80% | 90% | 100% |
| O=C(O)C1C=CC(NC(=O)C2(C3CC3)CC(c3cc(F)cc(F)c3)=NO2)C1 (centres unmarked) [Example I-094] | 100% | 90% | 90% | 90% | 80% | 90% | 90% | 80% | 90% | 90% | 90% | 90% | 90% | 90% |
| COC(=O)C1C=CC(NC(=O)C2(C(F)(F)F)CC(c3cc(F)cc(F)c3)=NO2)C1 (mixture of isomers) [Example I-063] | 90% | 100% | 90% | 100% | 90% | 90% | 90% | 90% | 80% | 90% | 90% | 80% | 80% | 90% |
| COCCOC(=O)[C@@H]1C=C[C@H](NC(=O)[C@@]2(C(F)(F)F)CC(c3cc(F)cc(F)c3)=NO2)C1 [Example I-076] | 100% | 100% | 90% | 100% | 90% | 80% | 90% | 80% | 80% | 90% | 90% | 80% | 80% | 80% |
| CCOC(=O)C1C=CC(NC(=O)C2(C(F)(F)F)CC(c3cc(Cl)cc(Cl)c3)=NO2)C1 (mixture of isomers) [Example I-038] | 90% | 100% | 80% | 90% | 90% | 80% | 80% | 90% | 80% | 80% | 90% | 80% | 90% | 80% |
| CCOCCOC(=O)[C@@H]1C=C[C@H](NC(=O)[C@@]2(C)CC(c3cc(F)cc(F)c3)=NO2)C1 [Example I-093] | 100% | 100% | 100% | 100% | 80% | 80% | 80% | 90% | 80% | 90% | 80% | 80% | 80% | 100% |
| COCCOC(=O)[C@@H]1C=C[C@H](NC(=O)[C@@]2(C)CC(c3cc(F)cc(F)c3)=NO2)C1 [Example I-092] | 90% | 90% | 80% | 90% | 80% | 90% | 90% | 90% | 80% | 80% | 90% | 80% | 90% | 100% |
| C=CC1(C(=O)NC2C=CC(C(=O)O)C2)CC(c2cc(F)cc(F)c2)=NO1 (mixture of isomers) [Example I-037] | 90% | 90% | 90% | 90% | 90% | 90% | 90% | 80% | 80% | 90% | 90% | 90% | 90% | 90% |
| C=CC1(C(=O)NC2C=CC(C(=O)OCCCl)C2)CC(c2cc(F)cc(F)c2)=NO1 (mixture of isomers) [Example I-061] | 90% | 100% | 100% | 90% | 90% | 80% | 90% | 80% | 80% | 90% | 90% | 80% | 90% | 90% |
| CCOC(=O)C1C=CC(NC(=O)C2(C(F)(F)F)CC(c3cc(F)cc(F)c3)=NO2)C1 (mixture of isomers) [Example I-058] | 100% | 100% | 100% | 90% | 90% | 90% | 90% | 90% | 80% | 90% | 90% | 90% | 80% | 100% |
| COC(=O)C(NC(=O)C1C=CC(NC(=O)C2(C)CC(c3cc(F)cc(F)c3)=NO2)C1)C(C)C (mixture of isomers) [II-11] | 90% | 90% | 90% | 90% | 90% | 90% | 90% | 90% | 90% | 90% | 90% | 90% | 90% | 90% |
